Consider three compounds from patent US7112715B2, “Transgenic mouse for targeted recombination mediated by modified Cre-ER” (Gie-Cerbm, Centre Europeen de Recherche en Biologie et en …, priority 2000, dated 2006).

For one series, the target named is mouse ER LBD (mER) G525R (Mus musculus, UniProt P19785, G525R). Particulars: cited from earlier work.
The test system of series [1] is fusion protein between the recombinase Cre and the ligand-binding domain of the mutated human nuclear estrogen receptor. Particulars: varies between a few percents and 80%; five infections of 8 mg; cited from earlier work.
The target of series [2] is T1, Cre-ER^T3 (Homo sapiens, UniProt P03372, L544A/M543A). The note with it: 1 and 0.1 mg of OHT; day 15. As to the method: Activity of β-galactosidase on sections of the epidermis of the tail of K5-Cre-ER^T2(tg/0)/Rosa^f1/1 and K5-Cre-ER^T3(tg/0)/Rosa^f1/+ mice treated with 1 mg, 0.1 mg, 0.01 mg and 0.001 mg of QHT. The analyses are carried out on the fifteenth day after the start of the treatment (D0).
T1 sequence (P03372 with tags, fused parts or gaps M543A/L544A): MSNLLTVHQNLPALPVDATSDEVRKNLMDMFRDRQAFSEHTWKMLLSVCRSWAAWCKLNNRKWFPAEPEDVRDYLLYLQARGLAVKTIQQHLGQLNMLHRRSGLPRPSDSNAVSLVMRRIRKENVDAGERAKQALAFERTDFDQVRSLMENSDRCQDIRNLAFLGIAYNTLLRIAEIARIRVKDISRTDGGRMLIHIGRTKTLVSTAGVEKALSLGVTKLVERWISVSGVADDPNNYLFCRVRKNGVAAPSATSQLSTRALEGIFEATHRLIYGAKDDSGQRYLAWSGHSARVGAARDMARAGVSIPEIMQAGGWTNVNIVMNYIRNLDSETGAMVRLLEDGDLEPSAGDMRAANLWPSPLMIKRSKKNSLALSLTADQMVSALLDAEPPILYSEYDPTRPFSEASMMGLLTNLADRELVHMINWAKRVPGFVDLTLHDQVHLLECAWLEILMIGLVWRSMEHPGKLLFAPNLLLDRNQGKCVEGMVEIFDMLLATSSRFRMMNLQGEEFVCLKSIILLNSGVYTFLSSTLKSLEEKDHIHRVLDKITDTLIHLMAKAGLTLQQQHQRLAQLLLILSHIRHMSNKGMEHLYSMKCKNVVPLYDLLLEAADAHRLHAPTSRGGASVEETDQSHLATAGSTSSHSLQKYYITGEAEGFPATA
(§1) The sensitivity to OHT was tested in a first instance by analyzing the intracellular location of the chimeric proteins.

Series [3] has as its target T1, Cre-ER^T3. The note with it: K5-Cre-ER^T3 mice; OHT dose 0.001 mg; day 2. On the procedure: (§2) Immunohistochemistry of the chimeric Cre recombinase on sections of the epidermis of K5-Cre-ER^T2 and K5-Cre-ER^T3 mice treated either with 0.1 mg, 0.01 mg or 0.001 mg of OHT and analyzed two days (D 2) after the start of the treatment (D 0). The red color corresponds to labeling with the anti-Cre antibody directed against the Cre protein, and the Cyan color corresponds to DAPI.
(§3) After fixing in 2% paraformaldehyde, frozen sections of 10 μm are blocked in 5% normal goat serum (Vector Laboratories) incubated with the rabbit polyclonal antibody anti-MK6 (Babco). After washing in PBS/0.1% Tween 20, the sections are incubated with the donkey anti-rabbit IgG antibody conjugated with CY3 (Jackson Immuno Research) and then mounted in the Vectashield medium (Vector Laboratories) containing DAPI (4′,6-diamidino-2-phenylindole dihydrochloride; Boehringer Mannheim) (Brocard et al., 1997). The anti-Cre antibodies are used according to Indra et al. (1999). • 1.6—Immunohistochemistry
as §1

Another series has as its target Cre-ER^T2 (Homo sapiens, UniProt P03372, G400V/L544A/M543A). The note with it: K5-Cre-ER^T2 mice; OHT dose 0.001 mg; day 2. As to the method: as §2, §3, §1
The next series concerns melanocytic growths. In words: Melanocytic growths and lymph node melanocytes after DMBA or DMBA/TPA treatment of CT and RXRα^ep−/− mice. It is filed as in vivo, mouse. Particulars: for mice with enlarged and pigmented subiliac lymph nodes: 30 weeks. On the procedure:
A. Dorsal view of CT (K14-Cre-ER^T2(0/0)/RXRα^L2/L2) (left) and RXRα^ep−/− (right) mice 25 weeks after DMBA treatment. Arrows point to some or the melanocytic growths. B. Number of melanocytic growths in skin of CT and RXRα^ep−/− mice 30 weeks after DMBA and DMBA/TPA treatments, as indicated. Values are expressed as mean +/−SEM (n=6). *, p<0.05; ***, p<0.001, C. Size distribution of melanocytic growths in CT and RXRα^ep−/− mice. The number of 1–2 and 2–4 mm melanocytic growths was determined on CT and RXRα^ep−/− mice, 30 weeks after DMBA and DMBA/TPA treatments, as indicated. Values are expressed as mean +/−SEM (m=6).
Photograph of subiliac lymph nodes from CT (a and e) and RXRα^ep−/− (b and f) mice taken 30 weeks after DMBA and DMBA/TPA treatment, respectively. Hematoxylin and eosin stained 5 μm paraffin sections of CT (c and g) and RXRα^ep−/− (d and h) mice after DMBA and DMBA/TPA treatments, respectively. Scale bar, 33 μm.
Subiliac lymph nodes were isolated 30 weeks after DMBA application, fixed in 4% paraformaldehyde, photographed and embedded in paraffin. 5 μm-thick sections were stained with hematoxylin and eosin. • 1.8—Assay of blood parameters
(§4) A single dose of 7,12-dimethylbenz(a)anthracene (DMBA) (5 μg in 100 μl acetone) was applied on the dorsal skin of 10–14 week old mice, 7 weeks before or 16 days after the first Tam or oil (vehicle) treatments. 12-0-tetradecanoylphorbol-13-acetate (TPA) (5 μg in 200 μl acetone) was applied twice a week for 25 to 30 weeks, starting one week after DMBA application. CT and RXRα^ep−/− mice were shaved 7 and 2 days before DMBA treatment, and every second week for 30 and 15 weeks, respectively. 8 weeks after DMBA treatment, all-trans retinoic acid (t-RA, 20 nmoles in ethanol) or vehicle was topically applied 15 min before each TPA application. • 1.10—Determination of the number and size of the tumors
(§5) The length of the papillomas and the diameter of the melanocytic were measured with a Vernier calliper on isofluorane anesthesised mice.

The subject of series [4] is skin papilloma formation induced by DMBA/TPA. The series is described as follows: Antitumoral effect of topical retinoic acid on DMBA/TPA-induced skin papilloma. Format: in vivo, mouse. Particulars: for average number of tumors: ~25 weeks of DMBA/TPA treatment. As to the method:
as §4, §5

Cre-ER^T2, sequence (P03372 with tags, fused parts or gaps G400V/M543A/L544A): as the sequence (P03372 with tags, fused parts or gaps M543A/L544A) above, with G465V counted along it
mouse ER LBD (mER) G525R, sequence (P19785 whole entry G525R, the tested form may be a part): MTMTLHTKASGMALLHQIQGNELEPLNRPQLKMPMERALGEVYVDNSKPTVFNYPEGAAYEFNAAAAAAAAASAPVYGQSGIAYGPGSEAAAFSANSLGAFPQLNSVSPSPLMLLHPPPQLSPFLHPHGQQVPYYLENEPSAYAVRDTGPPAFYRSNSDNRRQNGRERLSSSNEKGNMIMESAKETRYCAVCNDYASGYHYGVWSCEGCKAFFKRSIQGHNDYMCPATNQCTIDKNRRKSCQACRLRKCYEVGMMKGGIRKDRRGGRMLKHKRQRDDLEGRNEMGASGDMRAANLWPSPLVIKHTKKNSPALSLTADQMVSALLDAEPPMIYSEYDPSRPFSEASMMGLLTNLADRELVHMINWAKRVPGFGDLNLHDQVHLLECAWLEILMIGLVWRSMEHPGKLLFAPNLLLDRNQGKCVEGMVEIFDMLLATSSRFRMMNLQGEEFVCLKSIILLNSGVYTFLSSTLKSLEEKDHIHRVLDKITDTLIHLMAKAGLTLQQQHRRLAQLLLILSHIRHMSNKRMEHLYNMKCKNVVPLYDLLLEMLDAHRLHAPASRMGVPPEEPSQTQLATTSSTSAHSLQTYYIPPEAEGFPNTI

Turning to 4-hydroxytamoxifen [OHT], on mouse ER LBD (mER) G525R, the “effect of the G525R mutation on binding” value was “without adversely affecting the binding”. The “efficiency of site-specific recombination in cells expressing the fusion protein” value in series [1] is ≤ 80%. In addition, the “excision levels, K5-Cre-ER^T3 versus K5-Cre-ER^T2 line” value on Cre-ER^T3 [2] is “similar”. For the same compound, at Cre-ER^T3 [3], the “nuclei strongly labeled with anti-Cre antibodies in the basal layer of the epidermis” value is given as “about ⅓”. Moreover, the “nuclei labeled with anti-Cre antibodies in the skin” value at Cre-ER^T2 is given as “no positive nucleus”.
`Cc1c2ccccc2c(C)c2c1ccc1ccccc12` [DMBA, 7,12-dimethylbenz(a)anthracene]: the “induction of melanocytic growths, RXRα^ep−/− versus CT mice” value in the series on melanocytic growths (DMBA alone) is ~7 fold. In addition, the “mice with enlarged and pigmented subiliac lymph nodes” value is 0/4 in the series with melanocytic growths (DMBA, CT mice) and “two out of 4” with melanocytic growths (DMBA, RXRα^ep−/− mice). Further, the “melanosomes per melanocyte, RXRα^ep−/− versus CT melanocytes” value in the series with melanocytic growths (DMBA, electron microscopy) was ~10 fold.
In the case of `CC1=C(/C=C/C(C)=C/C=C/C(C)=C/C(=O)O)C(C)(C)CCC1` [t-RA, all-trans retinoic acid], in series [4] (CT mice), the tumor formation entry is “efficiently inhibited”. Further, the “size of the papilloma after treatment” value in series [4] (CT mice, 25 weeks of RA treatment, from 2–3 mm, in 3 out of 8 papillomas of 6 mice) is on record as 1 mm. In series [4] (RA treated CT mice), the “size of the tumors” value was “below 2 mm” and the “average number of tumors” value is listed as 1. Besides, in series [4] (RA treated RXRα^ep−/− mice), the “tumors larger than 12 mm” value is listed as ~11% and the “average number of tumors” value is listed as ~17. Also, in series [4] (RXRα^ep−/− mice), the “change in size of the papilloma” value was “no decrease in size”. Further, in series [4] (after RA treatment), the “number and size of melanocytic growths, RXRα^ep−/− compared to CT mice” value is listed as “increased”. In series [4] (topical, female and male wild-type 129Sv), the “skin papilloma formation induced by DMBA/TPA” value is reported as “efficiently blocked”.
